According to US6667309B2, “Cyclobutene derivatives useful as antagonists of the motilin receptor” (Ortho-McNeil Pharmaceutical, Inc., priority 2000, dated 2003):

Target: T1, motilin receptors located on the colon of mature rabbits (Oryctolagus cuniculus, UniProt G1T803)
T1 construct: The muscle tissues were homogenized in 10 volumes of buffer; from tissue; host or cells: rabbit colon smooth muscle, crude membrane homogenate
Test: Competition with radiolabeled motilin (porcine) binding, rabbit colon membranes
Set-up: species or system New Zealand rabbits
Details: I125 motilin (porcine), rabbit colon membrane
Experimental: The compounds of the invention were tested for their ability to compete with radiolabeled motilin (porcine) for the motilin receptors located on the colon of mature rabbits. The colon from mature New Zealand rabbits was removed, dissected free from the mucosa and serosa layers, and diced into small pieces. The muscle tissues were homogenized in 10 volumes of buffer (50 mM Tris-Cl, 10 mM MgCl2, 0.1 mg/mL bactracin, and 0.25 mM Peflabloc, pH 7.5) in a Polytron (29,000 rpm, 4×15 seconds). The homogenate was centrifuged at 1000×g for 15 min. and the supernatant discarded. The pellet was washed twice before being suspended in homogenizing buffer. This crude homogenate was then passed first through a 19 gauge needle then a 23 gauge needle to further suspend the material and stored at −80° C. […] The pellet was counted in the gamma counter to determine the percentage of […] motilin and thereby the percent inhibition of the test compound.
% inhibition was determined for some compounds by standard techniques: […]

T1 sequence (G1T803 1-400): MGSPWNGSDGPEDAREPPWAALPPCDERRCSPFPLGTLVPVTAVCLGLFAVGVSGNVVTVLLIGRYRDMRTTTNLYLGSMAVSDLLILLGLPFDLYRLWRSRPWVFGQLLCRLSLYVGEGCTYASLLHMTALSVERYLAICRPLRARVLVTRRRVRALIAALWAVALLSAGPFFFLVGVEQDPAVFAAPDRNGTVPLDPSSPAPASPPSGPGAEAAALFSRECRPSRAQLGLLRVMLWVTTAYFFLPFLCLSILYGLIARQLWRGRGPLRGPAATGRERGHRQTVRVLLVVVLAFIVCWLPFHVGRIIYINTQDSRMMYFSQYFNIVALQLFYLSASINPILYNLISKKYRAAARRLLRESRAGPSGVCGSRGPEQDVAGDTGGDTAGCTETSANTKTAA

Structure (SMILES) | % inhibition (@ 1,000 nM test compound) [%] | % inhibition (@ 10,000 nM test compound) [%]
O=C(c1ccc(F)c(F)c1)N(CC1=CC(Cc2ccccc2)(NC(=O)C(Cl)(Cl)Cl)C1)c1cccc(OCCN2CCOCC2)c1 (centres unmarked) [example 6, 3-Benzyl-3-trichloroacetamido-1-[N-(3,4-difluorobenzoyl)]-N-[(3-(2-morpholinoethoxy)phenyl)amino]methylcyclobutene] | 14 | 
O=C(c1ccc(Br)cc1)N(CC1=CC(Cc2ccccc2)(NC(=O)C(Cl)(Cl)Cl)C1)c1cccc(OCCN2CCOCC2)c1 (centres unmarked) [example 7, 3-Benzyl-3-trichloroacetamido-1-[N-(4-bromobenzoyl)]-N-[(3-(2-morpholinoethoxy)phenyl)amino]methylcyclobutene] |  | 47
